Experimental data reported in ChEMBL document CHEMBL1132033, “Stabilization of microtubules by Combretastatin D derivatives” (Bioorg Med Chem Lett, 1999).

Tests used:
[1] = tested on: 1A9; experiment: Inhibitory activity against Taxol resistant 1A9 cell lines; assay type: functional, cell-based; details: Homo sapiens
[2] = tested on: 1A9/ptx-10; experiment: Inhibitory activity against Taxol resistant PTX10 cell lines; assay type: functional, cell-based; details: Homo sapiens
[3] = tested on: 1A9/ptx-22; experiment: Inhibitory activity against Taxol resistant PTX22 cell lines; assay type: functional, cell-based; details: Homo sapiens
[4] = target: Tubulin alpha chain (Sus scrofa) (UniProt P02550); experiment: Inhibitory activity against tubulin polymerization at 0.25 mM concentration; assay type: functional
Chain of Tubulin alpha chain (Sus scrofa) (P02550 whole entry, looked up): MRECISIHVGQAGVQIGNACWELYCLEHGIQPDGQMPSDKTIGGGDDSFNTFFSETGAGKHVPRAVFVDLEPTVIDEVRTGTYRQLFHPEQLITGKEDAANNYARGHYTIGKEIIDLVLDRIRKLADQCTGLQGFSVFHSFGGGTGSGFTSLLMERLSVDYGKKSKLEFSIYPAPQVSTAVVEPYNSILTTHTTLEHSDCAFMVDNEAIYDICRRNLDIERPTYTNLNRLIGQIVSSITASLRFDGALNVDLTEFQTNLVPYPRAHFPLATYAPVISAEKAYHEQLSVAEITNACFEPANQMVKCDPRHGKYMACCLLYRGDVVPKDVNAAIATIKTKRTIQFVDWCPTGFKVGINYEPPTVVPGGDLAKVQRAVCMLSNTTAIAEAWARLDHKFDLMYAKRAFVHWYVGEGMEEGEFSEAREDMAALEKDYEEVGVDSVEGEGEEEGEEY

[5] = target: Tubulin alpha chain (Sus scrofa) (UniProt P02550); experiment: Inhibitory activity against tubulin polymerization at 0.5 mM concentration; assay type: functional
[6] = target: Tubulin alpha chain (Sus scrofa) (UniProt P02550); experiment: Inhibitory activity against tubulin polymerization at 1.0 mM concentration; assay type: functional
[7] = target: Tubulin alpha chain (Sus scrofa) (UniProt P02550); experiment: Inhibitory activity against tubulin polymerization at 2.0 mM concentration; assay type: functional

Which results are given for `COc1ccc2cc1Oc1ccc(cc1)CC(O)COC(=O)CC2` (configuration not stated)?
IC50 [1]: > 2500 nM; IC50 [2]: > 2500 nM; IC50 [3]: > 2500 nM; inhibition [4]: 27%; inhibition [5]: 47%; inhibition [6]: 62%; inhibition [7]: 76%

`COc1c(Br)cc2cc1Oc1ccc(cc1)CC(O)COC(=O)CC2` (configuration not stated) was tested. Which IC50 [1] did it give?
The IC50 was over 2500 nM.

And the IC50 [2]?
The IC50 was over 2500 nM.

And the IC50 [3]?
Its IC50 is over 2500 nM.

What about the inhibition [4] of the same compound?
The inhibition was 3%.

And the inhibition [5]?
The inhibition was 21%.

What about the inhibition [6] of the same compound?
The inhibition was 39%.

And the inhibition [7]?
The inhibition was 67%.

How did the IC50 [1] turn out when `COc1ccc2cc1Oc1ccc(cc1)CC(I)COC(=O)CC2` (configuration not stated) was run?
The IC50 was over 2500 nM.

What about the IC50 [2] of the same compound?
Its IC50 is over 2500 nM.

And the IC50 [3]?
The IC50 was over 2500 nM.

What about the inhibition [4] of the same compound?
Its inhibition is 5%.

And the inhibition [5]?
Its inhibition is 28%.

And the inhibition [6]?
Its inhibition is 35%.

And the inhibition [7]?
The inhibition was 54%.

Which IC50 [1] does the source give for `COc1cc2c(c(OC)c1OC)-c1ccc(OC)c(=O)cc1[C@@H](NC(C)=O)CC2` [COLCHICINE] here?
The IC50 was over 2500 nM.

And the IC50 [2]?
The IC50 was over 2500 nM.

What about the IC50 [3] of the same compound?
Its IC50 is over 2500 nM.

And the inhibition [4]?
The inhibition was 4%.

What about the inhibition [5] of the same compound?
The inhibition was 3%.

What about the inhibition [6] of the same compound?
Its inhibition is 4%.

What about the inhibition [7] of the same compound?
Its inhibition is 0%.

Which results are given for `COc1ccc2cc1Oc1ccc(cc1)/C=C\COC(=O)CC2`?
IC50 [1]: > 2500 nM; IC50 [2]: > 2500 nM; IC50 [3]: > 2500 nM; inhibition [4]: 16%; inhibition [5]: 19%; inhibition [6]: 27%; inhibition [7]: 35%

For `COc1ccc2cc1Oc1ccc(cc1)C1OC1COC(=O)CC2` (configuration not stated), which IC50 [1] is on record?
Its IC50 is over 2500 nM.

What about the IC50 [2] of the same compound?
Its IC50 is over 2500 nM.

What about the IC50 [3] of the same compound?
The IC50 was over 2500 nM.

And the inhibition [4]?
The inhibition was 0%.

What about the inhibition [5] of the same compound?
Its inhibition is 20%.

What about the inhibition [6] of the same compound?
The inhibition was 27%.

And the inhibition [7]?
The inhibition was 39%.
